Measurements reported in US11433053B2, “LSD1 inhibitor and preparation method and application thereof” (CSPC ZHONGQI PHARMACEUTICAL TECHNOLOGY (SHIJIAZHUANG) CO., …, priority 2017, dated 2022).
pIC50: −log10 of the molar value.

What was measured:
human LSD1 = human LSD1 (Homo sapiens (Human), UniProt O60341); test: Evaluation of enzyme activity: LSD1 fluorescence coupling enzyme assay (HRP/Amplex Red); format: biochemical; conditions: human LSD1, histone H3(1-21)K4me2 peptide 10 μM, 30 min pre-incubation
Protocol: The purpose of this test is to test the in vitro inhibitory activities of the compounds against LSD1. The enzyme used in this experiment was human LSD1, and the standard substrate was histone H3(1-21)K4me2 peptide (10 μM). HCI-2509 (SP2509) was used as reference compound, and the fluorescence coupling enzyme assay was employed. The production of FAD-dependent H2O2 as a result of demethylase activity of LSD1 was measured by coupling with HRP and Amplex Red. Compounds as well as control compound HCl-2509 were tested in 10-dose IC50 mode with a 3-fold serial dilution in duplicate starting at 10 μm. All compounds were pre-incubated 30 mins with enzyme before added substrate to start reaction. Fluorescence measurement: Ex/Em=535/590 by EnVision.
The test compound's inhibitory activities against LSD11 was classified as: + for IC50≤50 nM; ++ for IC50>50 nM and ≤100 nM; +++ for IC50>100 nM and ≤500 nM, and the results are shown in Table 1.

H1417 cells = test: Cell proliferation inhibitory activity on H1417 cells (CellTiter-Glo, 10 days); format: cell-based, human; conditions: Homo sapiens; for pIC50: NCI-H1417, 240 h, H1417 cells, 10 days incubation; for Emax: NCI-H1417, H1417 cells, highest percentage inhibition of cell viability, read-out: Maximum inhibition percentage (%)
Protocol: Experimental purposes: To test the proliferation inhibitory activities of the test compounds on H1417 cells.
Experimental materials: RPMI 1640 medium, fetal bovine serum, Promega CellTiter-Glo reagent. The H1417 cell line purchased from ATCC. Envision Multi-Label Analyzer (PerkinElmer).
Experimental method: H1417 cells were seeded in a black 384-well plate, 1000 cells per well in […] of cell suspension. The test compounds were diluted 3-fold with Epmotion to the 10th concentration i.e, the compounds were diluted from 10 mmol to […], and a double duplicate well experiment was set. 198 μL medium was added to the middle plate, according to the corresponding position, 2 μL gradient diluted compounds were added to the middle plate. The mixture was mixed evenly and transferred 20 μL per well to the cell plates. The cell plates were incubated in a carbon dioxide incubator for 10 days. 25 μL of Promega CellTiter-Glo reagent per well was added to the cell plate and the mixture was incubated for 10 minutes at room temperature to stabilize the luminescence signal. Readings were performed by PerkinElmer Envision multi-label analyzer.
Data analysis: The original data was converted to the inhibition rate by the equation (Max-Ratio)/(Max-Min)*100%, and the value of IC50 can be obtained by curve fitting with four parameters. (Model 205 in XLFIT5, iDBS)
The growth inhibitory activities of the test compounds on H1417 cells were classified as + for IC50≤100 nM; ++ for IC50>100 nM and ≤500 nM; +++ for IC50>500 nM and ≤1000 nM; the highest percentage inhibition of cell viability was classified as: […]; 90%>B≥70%; 70%>C≥50%.

[1] = Pharmacokinetic evaluation in C57BL/6 mice after intravenous and oral administration; format: in vivo; conditions: male, mouse, plasma; for Cmax / clearance / half-life / Vd: IV 1 mg/kg; for Cmax: oral 2 mg/kg, route of Cmax not stated, read-out: max concentration Cmax; for clearance: read-out: clearance CL; for half-life: read-out: half-life T1/2 (IV, h) (converted); for Vd: read-out: volumes of distribution Vdss; for bioavailability: PO 2 mg/kg vs IV 1 mg/kg, read-out: bioavailability F (%); for AUC(0-t): PO 2 mg/kg, read-out: the area under the plasma concentration-time curve AUC0-last PO
Protocol: Experimental purposes: To test the pharmacokinetics of compounds in C57BL/6 mice
C57BL/6 mice (male, 7-9 weeks old, Shanghai Slack)
Test the pharmacokinetics characteristics of rodents after intravenous and oral administration in accordance with standard protocols, and the candidate compound was formulated into a clear solution in the experiment. The mice were administered by intravenous injection and orally once. The intravenous and oral vehicle is a 10% aqueous solution of hydroxypropyl β-cyclodextrin or a physiological saline solution. Six male C57BL/6 mice were employed in this assay, three of them were administered intravenously at a dose of 1 mg/kg, plasma samples were collected at 0 h (before administration) and 0.0833, 0.25, 0.5, 1, 2, 4, 7, 24 h after administration. Another three mice were administered by oral gavage at a dose of 2 mg/kg, plasma samples were collected at 0 h (before administration) and 0.5, 1, 2, 3, 4, 6, 24 h after administration. Collect whole blood samples within 24 hours, centrifuge at 3000 g for 15 minutes, separate the supernatant to obtain a plasma sample, 4 times volume of the internal standard acetonitrile solution was added to precipitate the protein. Centrifuge the supernatant and add an equal volume of water and centrifuge to take the supernatant. LC-MS/MS was used to quantitatively analyze plasma concentrations and calculate pharmacokinetic parameters such as max concentration (Cmax), clearance (CL), half-life (T1/2), volumes of distribution (Vdss), the area under the plasma concentration-time curve (AUC0-last), bioavailability (F), etc.

SMILES | pIC50 (human LSD1) | pIC50 (H1417 cells) | Emax (H1417 cells) [%] | Cmax [1] [ng/mL] | clearance [1] [mL/min/kg] | half-life [1] [h] | Vd [1] [L/kg] | bioavailability [1] [%] | AUC(0-t) [1] [µM·h]
Clc1ccc(-c2nc(C3(CN[C@H]4CC4c4ccccc4)CC3)no2)cc1 (some centres unmarked) [Example 65] | ≥ 7.30 | 6.30 to 7.00 | 90 to 100 | 2070 | 10.6 | 4.2 | 3 | 49 | 3.38
N[C@H]1CC[C@H](c2noc(C3(CN[C@@H]4C[C@H]4c4ccccc4)CC3)n2)CC1 [Example 242] | ≥ 7.30 | ≥ 7.00 | 90 to 100 | 179 | 72.1 | 2 | 10.3 | 57.5 | 0.712
N#Cc1ccc(-c2nc(C3(CN[C@H]4CC4c4ccccc4)CC3)no2)cc1 (some centres unmarked) [Example 64] | ≥ 7.30 | 6.30 to 7.00 | 90 to 100 | 1290 | 21.9 | 1.3 | 1.9 | 44 | 1.88
CC1(c2nc(C3(CN[C@@H]4C[C@H]4c4ccccc4)CC3)no2)CCC(N)CC1 (some centres unmarked) [Example 224] | – | – | – | 58.5 | 112 | 2.97 | 21.7 | 35.1 | 0.273
FC(F)(F)c1ccc(-c2nc(C3(CN[C@H]4CC4c4ccccc4)CC3)no2)cn1 (some centres unmarked) [Example 66] | ≥ 7.30 | 6.00 to 6.30 | 90 to 100 | 2140 | 13.1 | 1.5 | 1.4 | 57 | 3.51
O=C(O)C1(CN2CCC(c3nc(C4(CN[C@@H]5C[C@H]5c5ccccc5)CC4)no3)CC2)CCC1 [Example 235] | 6.30 to 7.00 | ≥ 7.00 | 70 to 90 | 497 | 62.4 | 0.34 | 0.99 | 28 | 0.37
O=C(O)[C@@H]1CCCN1CC1(CN[C@H]2CC2c2ccccc2)CC1 (some centres unmarked) [Example 210] | ≥ 7.30 | 6.00 to 6.30 | 50 to 70 | 815 | 37.7 | 2.7 | 2.6 | 40.5 | 1.13
CN(C)C(=O)c1ccc(-c2nc(C3(CN[C@H]4CC4c4ccccc4)CC3)no2)cc1 (some centres unmarked) [Example 183] | ≥ 7.30 | 6.00 to 6.30 | 90 to 100 | – | – | – | – | – | –
c1ccc([C@@H]2C[C@H]2NCC2(c3noc(N4CCNCC4)n3)CC2)cc1 [Example 246] | ≥ 7.30 | 6.00 to 6.30 | 90 to 100 | – | – | – | – | – | –
CN1CCN(c2nc(C3(CN[C@@H]4C[C@H]4c4ccccc4)CC3)no2)CC1 [Example 247] | ≥ 7.30 | 6.00 to 6.30 | 90 to 100 | – | – | – | – | – | –
O=C(O)C12CCC(c3nc(C4(CN[C@H]5CC5c5ccccc5)CC4)no3)(CC1)CC2 (some centres unmarked) [Example 177] | – | 6.00 to 6.30 | 50 to 70 | 3210 | 9.9 | 1.6 | 0.5 | 51.5 | 3.86
O=C(N1CCC(c2nc(C3(CN[C@H]4CC4c4ccccc4)CC3)no2)CC1)C(F)(F)F (some centres unmarked) [Example 226] | ≥ 7.30 | ≥ 7.00 | 90 to 100 | – | – | – | – | – | –
N[C@H]1CC[C@H](c2nc(C3(CN[C@@H]4C[C@H]4c4ccccc4)CCC3)no2)CC1 [Example 233] | 6.30 to 7.00 | 6.30 to 7.00 | 70 to 90 | – | – | – | – | – | –
NC1CCC(c2nc(C3(CN[C@@H]4C[C@H]4c4ccccc4)CC3)no2)CC1(F)F (some centres unmarked) [Example 244] | ≥ 7.30 | ≥ 7.00 | 70 to 90 | – | – | – | – | – | –
